*1 amine or outer side, *2 acyl side, *3 side chain or, on linkers, in order; H or OH if unused. Where a SMILES comes first, the peptide text is derived from it. Bridges are numbered along the chain shown (N, C = ends). [ ]: non-standard residue; d: D form. X1 = CC(C)CCCCCCCCC[C@H](CC(=O)[*:1])O[*:2]
Experiments:
[1] = tested on: HepG2 cell line contaminated with mycoplasma; assay: Co-treatment with amphidinol 3 (AM3) and cyclic lipopeptide/antibiotic, PCR with mycoplasma diagnosis kit; type: cell-based
Description: The cell lines NIH3T3, HepG2, and Raw 264.7, which were confirmed to be contaminated with mycoplasma, were each inoculated at a concentration of 1×10^6 cells on a T-75 culture flask (NUNC, Cat. No. 156367). DMEM (GIBCO BRL, Cat. No. 12800-058) containing 10% or less of serum (GIBCO BRL, Cat. […] After culturing for 3 days, the obtained cells were treated with Trypsin-EDTA to obtain a cell solution. The resulting cells (1×10^6 cells) which was treated with amphidinol 3 (AM3) were inoculated. DMEM (GIBCO BRL, Cat. No. 12800-058) containing 10% or less of serum (GIBCO BRL, Cat. […] After culturing for 3 days, the cells were harvested. PCR was performed thereon with a mycoplasma diagnosis kit (Promokine, Germany; Cellsafe Co., Ltd., Korea) according to the enclosed protocol. The resulting PCR products were electrophoresed on a 1% agarose gel to measure the mycoplasma contamination.

[2] = tested on: Mycoplasma hyorhinis (ATCC17981s); assay: Inhibition of Mycoplasma hyorhinis cultured in PPLO medium, INT colour change; type: cell-based; details: final concentration at which INT colour change did not occur, 24 hours + 4 hours at 37° C.; for IC50: Mycoplasma, read-out: IC50
Description: In order to evaluate the effects of the extract and amphidinol derivatives prepared in Example 1 on mycoplasma, Mycoplasma hyorhinis (ATCC17981s) was cultured in a PPLO medium (pleuropneumonia-like organism basal medium, Difco Laboratories, Detroit, USA) supplemented with a fetal calf serum and a yeast extract, according to the method disclosed by Hayflick (Hayflick, 1965, Tex. Rep. Bio. Med. 23, 285-303). That is, 100 μl of the medium was placed on each well of a 96-well plate, and a sample (that is, the extract and amphidinol derivatives prepared in Example 1) was added to each well, such that each sample was diluted from 2 times (i.e., 2× diluted) to 12 times (i.e., 12× diluted), the starting concentration being 1 mg/ml. Mycoplasma was cultured in a PPLO medium (pleuropneumonia-like organism basal medium, Difco Laboratories, Detroit, USA) supplemented with a fetal calf serum and a yeast extract, at a temperature of 37° C. for 48 hours. The resulting culture medium was diluted with the PPLO medium at a ratio of 1:10. 100 μl of the diluted culture medium was added to each well of the 96-well plate, so that the total amount of each well was 200 μl. After culturing at a temperature of 37° C. for 24 hours, 40 μl of 0.2 mg/ml INT (p-iodonitrotetrazolium) was added thereto and culturing was further performed for 4 hours. If the medium turns pink following the culturing, the color change means that metabolism of mycoplasma actively occurs. Also, if mycoplasma is suppressed by the sample, the medium turned pink less.

| Molecule | minimum inhibitory concentration (no INT colour change) [2] | IC50 [2] [µg/mL] | other results |
| --- | --- | --- | --- |
| CC(C)CCCCCCCCC[C@@H]1CC(=O)N[C@@H](CCC(=O)O)C(=O)N[C@@H](CC(C)C)C(=O)N[C@H](CC(C)C)C(=O)N[C@@H](C(C)C)C(=O)N[C@@H](CC(=O)O)C(=O)N[C@H](CC(C)C)C(=O)N[C@@H](CC(C)C)C(=O)O1 [surfactin] (EL[dL]VD[dL]L; linker N-C via X1) | – | – | mycoplasma contamination ([1]; used alone, surfactin 10 or 20 μM, ciprofloxacin 1 or 5 μg/ml, rifampicin 0.5 or 1 μg/ml): mycoplasma contamination remained; mycoplasma contamination ([1]; used together with amphidinol 3 (AM3) 5 and 10 μg/ml): completely removed |
| C=CCC/C=C/C=C/C=C/CC/C=C/C(O)C(O)C1OC(C(O)C(O)C(=C)CCC(O)C2CC(O)C(O)C(C(O)C(O)/C=C(\C)CCC(O)CC(O)C(O)C(C)CC(O)C(O)CCCC(O)CCCC(O)CCCC(O)/C=C/CC(O)/C=C/CC(O)CO)O2)CC(O)C1O (stereo not drawn) [AM6, amphidinol 6] | +++ (+++: 1~20 μg/ml) | – | – |
| amphidinol 2 [AM2] | +++ (+++: 1~20 μg/ml) | – | – |
| C=C/C=C/CC/C=C/C=C/C=C/CC/C=C/C(O)C(O)C1OC(C(O)C(O)C(=C)CCC(O)C2CC(O)C(O)C(C(O)C(O)/C=C(\C)CCC(O)CC(O)C(O)C(C)CC(O)C(O)C(C)CCC(O)CCCC(O)CCCC(O)CCCC(O)/C=C/CC(CO)OS(=O)(=O)[O-])O2)CC(O)C1O.[Na+] (stereo not drawn) [AM1, amphidinol 1] | – | 1 to 20 | – |
| C=CCC/C=C/C=C/C=C/CC/C=C/C(O)C(O)C1OC(C(O)C(O)C(=C)CCC(O)C2CC(O)C(O)C(C(O)C(O)/C=C(\C)CCC(O)CC(O)C(O)C(C)CC(O)C(O)CCCC(O)CCCC(O)/C=C/CC(O)/C=C/CC(O)CO)O2)CC(O)C1O (stereo not drawn) [AM10] | – | 10 to 100 | – |
| amphidinol 5 [AM5] | +++ (+++: 1~20 μg/ml) | – | – |
| C=C/C=C/CC/C=C/C=C/C=C/CC/C=C/C(O)C(O)C1OC(C(O)C(O)C(=C)CCC(O)C2CC(O)C(O)C(C(O)C(O)/C=C(\C)CCC(O)CC(O)C(O)C(C)C(O)CCCC(O)CCCC(O)CCCC(O)/C=C/CC(O)/C=C/CC(O)CO)O2)CC(O)C1O (stereo not drawn) [AM9, amphidinol 9] | – | 1 to 20 | – |
| amphidinol 7 [AM7] | +++ (+++: 1~20 μg/ml) | – | – |

Source: US8815565B2, “Method for culturing mycoplasma contamination-free cells and method for removing mycoplasma contamination of cells” (Cellsafe Co., Ltd., priority 2010, dated 2014)
